In patent publication US20060025566A1, “Macrocyclic modulators of the ghrelin receptor” (Tranzyme Pharma Inc., priority 2003, published 2006) one finds Ki data, which are given here for 42 compounds.

The structures appear in SMILES notation.

The first assay deals with T1, human growth hormone secretagogue receptor (hGHS-R1a) (Homo sapiens, UniProt Q92847).
T1 construct: purchased PerkinElmer BioSignal #RBHGHSM, lot#1887; host or cells: HEK-293, stably transfected (membranes)
T1 sequence (Q92847 whole entry): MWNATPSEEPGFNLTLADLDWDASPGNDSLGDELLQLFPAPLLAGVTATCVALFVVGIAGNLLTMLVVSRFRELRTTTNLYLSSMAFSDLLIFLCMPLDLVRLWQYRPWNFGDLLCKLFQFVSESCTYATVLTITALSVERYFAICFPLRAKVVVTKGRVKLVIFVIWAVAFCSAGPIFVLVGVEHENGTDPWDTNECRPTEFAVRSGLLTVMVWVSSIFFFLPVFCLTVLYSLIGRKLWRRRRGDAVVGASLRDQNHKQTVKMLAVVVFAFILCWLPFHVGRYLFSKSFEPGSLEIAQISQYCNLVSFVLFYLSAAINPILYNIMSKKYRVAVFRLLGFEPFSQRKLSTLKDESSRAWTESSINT
Description: Competitive radioligand binding assay (ghrelin receptor), [125I]-ghrelin displacement on GHS-R/HEK 293 membranes. Conditions: Table 3C (compounds 18, 334-397), human ghrelin receptor; read-out: Ki. On the procedure:
The competitive binding assay at the human growth hormone secretagogue receptor (hGHS-R1a) was carried out analogously to assays described in the literature.
Multiscreen Harvest plates-GF/C (Millipore, #MAHFC 1H60) • 4. […] Bottom seal (Millipore, #MATAH0P00) • 7. […] Binding Buffer: 25 mM Hepes (pH 7.4), 1 mM CaCl2, 5 mM MgCl2, 2.5 mM EDTA, 0.4% BSA Assay Volumes
Competition experiments were performed in a 300 μl filtration assay format. • 1. 220 μL of membranes diluted in binding buffer • 2. 40 μL of compound diluted in binding buffer • 3. […] Compound Handling
Compounds were provided frozen on dry ice at a stock concentration of 10 mM diluted in 100% DMSO and stored at −80° C. until the day of testing. On the test day, compounds were allowed to thaw at rt O/N and then diluted in assay buffer according to the desired test concentrations.
Plates were sealed with TopSeal-A, vortexed gently and incubated at rt for 30 min. The reaction was arrested by filtering samples through Multiscreen Harvest plates (pre-soaked in 0.5% polyethyleneimine) using a Tomtec Harvester, washed 9 times with 500 μL of cold 50 mM Tris-HCl (pH 7.4, 4° C.), and then plates were air-dried in a fumehood for 30 min. A bottom seal was applied to the plates prior to the addition of 25 μL of MicroScint-0 to each well. […] Results were expressed as counts per minute (cpm).
Data were analyzed by GraphPad Prism (GraphPad Software, San Diego, Calif.) using a variable slope non-linear regression analysis.
• 1. […] Key Aspects of Method • 1. […] Results
For the compound `CC1(C)NCCOc2ccccc2C=CCNC(=O)[C@H](Cc2cccc(Cl)c2)NC(=O)C2(CCCC2)NC1=O` (stereo in doubt) [compound 349], the Ki was 10 to 100 nM. On the same count and under the same terms, next, `CC1(C)NCCOc2ccccc2C=CCNC(=O)[C@H](Cc2cccc(Cl)c2)NC(=O)C(C)(C)NC1=O` (stereo in doubt) [compound 350]: 100 to 1000 nM; `C[C@@H]1NC(=O)C2(CCCC2)NCCOc2ccccc2C=CCNC(=O)[C@H](Cc2cccc(Cl)c2)NC1=O` (stereo in doubt) [compound 352]: 100 to 1000 nM.

Staying with this assay, now noted: Table 3E, human ghrelin receptor; read-out: Ki.
`CCC(C)C1NCCOc2ccccc2CCCNC(=O)C(Cc2ccccc2)N2CCC(C2=O)N(C)C1=O` (stereo not drawn) [230 diastereomer]: the Ki lay in the range of 1000 to 10000 nM.

The assay is the same for the next values; noted with them: [125I]-ghrelin competition, GHS-R/HEK 293 membranes; Table 3A; read-out: Binding Activity at the Human Ghrelin Receptor.
As for `CC(C)C[C@@H]1NCCOc2ccccc2C=CCNC(=O)[C@H](Cc2ccc(-c3ccccc3)cc2)NC(=O)C2(CCCC2)NC1=O` (stereo in doubt) [compound 157], the Ki lay within 100 to 1000 nM. `CC(C)C[C@@H]1NCCOc2ccccc2C=CCNC(=O)[C@H](Cc2ccc3ccccc3c2)NC(=O)C2(CCCC2)NC1=O` (stereo in doubt) [compound 159]: the Ki fell in the range of 10 to 100 nM. The same measure, in the same setting: with `CC(C)C[C@@H]1NCCOc2ccccc2C=CCNC(=O)[C@H](Cc2cccs2)NC(=O)C2(CCCC2)NC1=O` (stereo in doubt) [compound 164] the figure was 100 to 1000 nM. Same read-out and setting: next, `CC[C@@H]1NC(=O)C2(CCCC2)NC(=O)[C@H](CC(C)C)NCCOc2ccccc2C=CCNC1=O` (stereo in doubt) [compound 165]: above 10000 nM. On the same count and under the same terms, with `CC(C)[C@@H]1NCCOc2ccccc2C=CCNC(=O)[C@H](Cc2ccccc2)NC(=O)C2(CC2)NC1=O` (stereo in doubt) [compound 199] the figure was 100 to 1000 nM; with `CC(C)C[C@H]1C(=O)NC2(CCCC2)C(=O)N[C@@H](Cc2ccccc2)C(=O)NCC=Cc2ccccc2OCCN1C` (stereo in doubt) [compound 203], 1000 to 10000 nM; with `CC(C)C1NCCOc2ccccc2C=CCNC(=O)C(Cc2ccccc2)NC(=O)C2(CCNCC2)NC1=O` (stereo in doubt) [compound 211], above 1000 nM.

The same assay, now with this note: binding activity at the human ghrelin receptor, [125I]-ghrelin competition, GHS-R/HEK 293 membranes; read-out: Ki.
Consider `O=C1NC2(CCCC2)C(=O)N[C@@H](Cc2ccccc2)C(=O)NCC=Cc2ccccc2OCCN[C@H]1Cc1ccccc1Cl` (stereo in doubt) [compound 122], for which the Ki lay in the range of 100 to 1000 nM. Turning to `O=C1NC2(CCCC2)C(=O)N[C@@H](Cc2ccccc2)C(=O)NCC=Cc2ccccc2OCCN[C@H]1Cc1cccc(Cl)c1` (stereo in doubt) [compound 123], the Ki fell in the range of 100 to 1000 nM.

Consider `O=C1NC2(CCCC2)C(=O)N[C@@H](Cc2ccccc2)C(=O)NCC=Cc2ccccc2OCCN[C@H]1Cc1ccc(Cl)cc1` (stereo in doubt) [compound 124], for which the Ki lay within 1000 to 10000 nM. The same measure, in the same setting: next, `O=C1NC2(CCCC2)C(=O)N[C@@H](Cc2ccccc2)C(=O)NCC=Cc2ccccc2OCCN[C@H]1CCc1ccccc1` (stereo in doubt) [compound 126]: 100 to 1000 nM. Turning to `O=C1NC2(CCCC2)C(=O)N[C@@H](Cc2ccccc2)C(=O)NCC=Cc2ccccc2OCCN[C@H]1Cc1ccc(-c2ccccc2)cc1` (stereo in doubt) [compound 128], the Ki was above 10000 nM. For the compound `O=C1NC2(CCCC2)C(=O)N[C@@H](Cc2ccccc2)C(=O)NCC=Cc2ccccc2OCCN[C@H]1Cc1ccncc1` (stereo in doubt) [compound 133], the Ki is above 1000 nM. For the compound `O=C1NC2(CCCC2)C(=O)NC(Cc2ccccc2)C(=O)NCC=Cc2ccccc2OCCNC1Cc1cccs1` (stereo in doubt) [compound 135], the Ki lay within 100 to 1000 nM.

Regarding `CC[C@H](C)[C@@H]1NCCOc2ccccc2C=CCNC(=O)[C@H](Cc2ccccc2)NC(=O)C2(CCCC2)NC1=O` (stereo in doubt) [compound 138], the Ki lay within 10 to 100 nM. Same read-out and setting: with `CC(C)[C@@H]1NCCOc2ccccc2C=CCNC(=O)[C@H](Cc2ccccc2)NC(=O)C2(CCCCC2)NC1=O` (stereo in doubt) [compound 139] the figure was 100 to 1000 nM. Still for that read-out and setting: with `CC(C)C1NCCOc2ccccc2C=CCNC(=O)C(Cc2ccccc2)NC(=O)C2(CCSCC2)NC1=O` (stereo in doubt) [compound 143] the figure was 100 to 1000 nM; with `CC(C)C[C@@H]1NCCOc2ccccc2C=CCNC(=O)[C@H](CCc2ccccc2)NC(=O)C2(CCCC2)NC1=O` (stereo in doubt) [compound 155], above 500 nM; with `CCC(C)C1NCCOc2ccccc2CCCNC(=O)C(Cc2ccccc2)NC(=O)C(C(C)CC)N(C)C1=O` (stereo not drawn) [150a], 100 to 1000 nM. With `CCC(C)C1NCCOc2ccccc2CCCNC(=O)C(Cc2ccccn2)NC(=O)C(C)N(C)C1=O` (stereo not drawn) [compound 32], the Ki lay within 10 to 100 nM. On to `CCC(C)C1NCCOc2ccccc2CCCNC(=O)C(Cc2ccccc2)NC(=O)C(CC)N(C)C1=O` (stereo not drawn) [compound 41], for which the Ki fell in the range of 10 to 100 nM.

On to `CC(C)CC1NCCOc2ccccc2C=CCNC(=O)C(CC(C)C)NC(=O)C2(CCCC2)NC1=O` (stereo not drawn) [compound 47], for which the Ki is above 10000 nM. On to `CCC[C@@H]1NCCOc2ccccc2CCCNC(=O)[C@@H](C)NC(=O)CN(C)C1=O` [compound 49], for which the Ki was above 10000 nM. The same measure, in the same setting: next, `CCC[C@@H]1NCCOc2ccccc2CCCNC(=O)CNC(=O)CN(C)C1=O` [compound 51]: above 10000 nM; `CCCC[C@H]1NC(=O)CN(C)C(=O)[C@H](CCC)NCCOc2ccccc2CCCNC1=O` [compound 52]: 100 to 1000 nM; `CCC[C@@H]1NCCOc2ccccc2CCCNC(=O)[C@@H](CCCN)NC(=O)CN(C)C1=O` [compound 53]: above 10000 nM. Still for that read-out and setting: next, `CCC[C@@H]1NCCOc2ccccc2CCCNC(=O)[C@@H](Cc2ccccc2)NC(=O)[C@H](C)NC1=O` [compound 59]: 1000 to 10000 nM; `CCC[C@@H]1NCCOc2ccccc2CCCNC(=O)[C@@H](Cc2ccccc2)NC(=O)[C@@H](C)NC1=O` [compound 60]: 100 to 1000 nM. The same measure, in the same setting: next, `CCC[C@@H]1NCCOc2ccccc2CCCNC(=O)[C@@H](Cc2ccccc2)NC(=O)CNC1=O` [compound 61]: 100 to 1000 nM. As for `CCC[C@@H]1NCCOc2ccccc2CCCNC(=O)[C@@H](Cc2ccccc2)NC(=O)[C@H](CC(C)C)NC1=O` [compound 62], the Ki lay within 1000 to 10000 nM. As for `CCC[C@@H]1NCCOc2ccccc2CCCNC(=O)[C@@H](Cc2ccccc2)NC(=O)[C@@H](CC(C)C)NC1=O` [compound 63], the Ki is above 10000 nM. Same read-out and setting: with `CCC[C@@H]1NCCOc2ccccc2CCCNC(=O)[C@@H](Cc2ccccc2)NC(=O)[C@H](Cc2ccccc2)NC1=O` [compound 64] the figure was above 10000 nM; with `CCC[C@@H]1NCCOc2ccccc2CCCNC(=O)[C@@H](Cc2ccccc2)NC(=O)C2(CCCC2)NC1=O` [compound 67], 100 to 1000 nM; with `CCC[C@@H]1NCCOc2ccccc2CCCNC(=O)[C@@H](Cc2ccccc2)NC(=O)[C@H](CCCCN)NC1=O` [compound 68], 1000 to 10000 nM.

With `C[C@@H]1NCCOc2ccccc2CCCNC(=O)[C@@H](Cc2ccccc2)NC(=O)CN(C)C1=O` [compound 72], the Ki fell in the range of 1000 to 10000 nM. With `CN1CC(=O)N[C@H](Cc2ccccc2)C(=O)NCCCc2ccccc2OCCN[C@@H](CCC(=O)O)C1=O` [compound 73], the Ki was above 10000 nM.

Still in this assay, the particulars now being: binding activity at the human ghrelin receptor, [125I]-ghrelin displacement; read-out: Ki.
For `C[C@@H]1C(=O)N[C@H](Cc2ccc(Cl)cc2)C(=O)NCC=Cc2ccccc2OCCN[C@@H](C2CC2)C(=O)N1C` (stereo in doubt) [compound 308], the Ki is 0.1 to 10 nM. The same measure, in the same setting: with `CC[C@H](C)[C@@H]1NCCOc2ccccc2CCCNC(=O)C(Cc2cccc(Cl)c2)NC(=O)C2(CCCC2)NC1=O` (stereo in doubt) [compound 369] the figure was 10 to 100 nM.
